Measurements: US8735364B2, “Antisense modulation of apolipoprotein B expression” (Genzyme Corporation, priority 2001, dated 2014)
Blank lines part the entries; values can stand above or below the compound they belong to. Oligonucleotides are written 5' to 3', each unit as a sugar letter and its base; * is a phosphorothioate linkage, no mark a phosphodiester; rarer units and linkages stand in square brackets, end groups in braces. Plain capitals give the bases only. e = 2'-O-(2-methoxyethyl) (MOE); [5mC] = 5-methylcytosine; d = 2'-deoxy (DNA)

What was measured:
[1] = test system: human apolipoprotein B mRNA; assay: Inhibition of human apolipoprotein B mRNA levels in HepG2 cells, quantitative real-time PCR; assay type: cell-based; design: %INHIB of human apolipoprotein B mRNA levels: concentration or dose not given beside the values; details: for %INHIB of human apolipoprotein B mRNA levels: averages from two experiments
Description: The human hepatoblastoma cell line HepG2 was obtained from the American Type Culture Collection (Manassas, Va.). HepG2 cells were routinely cultured in Eagle's MEM supplemented with 10% fetal calf serum, non-essential amino acids, and 1 mM sodium pyruvate (Gibco/Life Technologies, Gaithersburg, Md.). Cells were routinely passaged by trypsinization and dilution when they reached 90% confluence. Cells were seeded into 96-well plates (Falcon-Primaria #3872) at a density of 7000 cells/well for use in RT-PCR analysis.
When cells reached 80% confluency, they were treated with oligonucleotide. For cells grown in 96-well plates, wells were washed once with 200 μL OPTI-MEM™-1 reduced-serum medium (Gibco BRL) and then treated with 130 μL of OPTI-MEM™-1 containing 3.75 μg/mL LIPOFECTIN™ (Gibco BRL) and the desired concentration of oligonucleotide. After 4-7 hours of treatment, the medium was replaced with fresh medium. Cells were harvested 16-24 hours after oligonucleotide treatment.
Quantitation of apolipoprotein B mRNA levels was determined by real-time quantitative PCR using the ABI PRISM™ 7700 Sequence Detection System (PE-Applied Biosystems, Foster City, Calif.) according to manufacturer's instructions. This is a closed-tube, non-gel-based, fluorescence detection system which allows high-throughput quantitation of polymerase chain reaction (PCR) products in real-time. As opposed to standard PCR, in which amplification products are quantitated after the PCR is completed, products in real-time quantitative PCR are quantitated as they accumulate. This is accomplished by including in the PCR reaction an oligonucleotide probe that anneals specifically between the forward and reverse PCR primers, and contains two fluorescent dyes. A reporter dye (e.g., JOE, FAM, or VIC, obtained from either Operon Technologies Inc., Alameda, Calif. or PE-Applied Biosystems, Foster City, Calif.) is attached to the 5′ end of the probe and a quencher dye (e.g., TAMRA, obtained from either Operon Technologies Inc., Alameda, Calif. or PE-Applied Biosystems, Foster City, Calif.) is attached to the 3′ end of the probe. When the probe and dyes are intact, reporter dye emission is quenched by the proximity of the 3′ quencher dye. During amplification, annealing of the probe to the target sequence creates a substrate that can be cleaved by the 5′-exonuclease activity of Taq polymerase. […] With each cycle, additional reporter dye molecules are cleaved from their respective probes, and the fluorescence intensity is monitored at regular intervals by laser optics built into the ABI PRISM™ 7700 Sequence Detection System. In each assay, a series of parallel reactions containing serial dilutions of mRNA from untreated control samples generates a standard curve that is used to quantitate the percent inhibition after antisense oligonucleotide treatment of test samples.
PCR reagents were obtained from PE-Applied Biosystems, Foster City, Calif. RT-PCR reactions were carried out by adding 25 μL PCR cocktail (1× TAQMAN™ buffer A, 5.5 mM MgCl2, 300 μM each of DATP, dCTP and dGTP, 600 μM of dUTP, 100 nM each of forward primer, reverse primer, and probe, 20 Units RNAse inhibitor, 1.25 Units AMPLITAQ GOLD™, and 12.5 Units MuLV reverse transcriptase) to 96 well plates containing 25 μL total RNA solution. The RT reaction was carried out by incubation for 30 minutes at 48° C. Following a 10 minute incubation at 95° C. to activate the AMPLITAQ GOLD™, 40 cycles of a two-step PCR protocol were carried out: 95° C. for 15 seconds (denaturation) followed by 60° C. for 1.5 minutes (annealing/extension).
Gene target quantities obtained by real time RT-PCR are normalized using either the expression level of GAPDH, a gene whose expression is constant, or by quantifying total RNA using RiboGreen™ (Molecular Probes, Inc. Eugene, Oreg.). GAPDH expression is quantified by real time RT-PCR, by being run simultaneously with the target, multiplexing, or separately. […]

[2] = Serum AST and ALT levels, high fat fed mice, 6 week study; assay type: in vivo, mouse; details: daily oral dose of 20 mg/kg
Description: (§1) Male C57BL/6 mice (n=8) receiving a high fat diet (60% kcal fat) were evaluated over the course of 6 weeks for the effects of treatment with the antisense oligonucleotide, ISIS 147764. Control animals received saline treatment (50 mg/kg). A subset of animals received a daily oral dose (20 mg/kg) atorvastatin calcium (Lipitor®, Pfizer Inc.). All mice, except atorvastatin-treated animals, were dosed intraperitoneally every three days (twice a week), after fasting overnight, with 5, 25, 50 mg/kg ISIS 147764 (SEQ ID No: 109) or saline (50 mg/kg) for six weeks. Serum cholesterol and lipoproteins were analyzed at 0, 2 and 6 week interim timepoints. At study termination, animals were sacrificed 48 hours after the final injections and evaluated for levels of target mRNA levels in liver, cholesterol, lipoprotein, triglyceride, liver enzyme (AST and ALT) and serum glucose levels as well as body, liver, spleen and fat pad weights.
Male C57BL/6 mice (n=8) receiving a high fat diet (60% kcal fat) were evaluated over the course of 6 weeks for the effects of ISIS 147764 on liver enzyme (AST and ALT) levels. Control animals received saline treatment (50 mg/kg). Mice were dosed intraperitoneally every three days (twice a week), after fasting overnight, with 5, 25, 50 mg/kg ISIS 147764 (SEQ ID No: 109) or saline (50 mg/kg) for six weeks.
Values in the table are expressed as IU/L. Increased levels of the liver enzymes ALT and AST indicate toxicity and liver damage.

[3] = Body, spleen, liver and fat pad weight, high fat fed mice, 6 week study; assay type: in vivo, mouse; details: 20 mg/kg daily, compared to saline-treated controls
Description: as §1
Male C57BL/6 mice (n=8) receiving a high fat diet (60% kcal fat) were evaluated over the course of 6 weeks for the effects of ISIS 147764 on body, spleen, liver and fat pad weight. Control animals received saline treatment (50 mg/kg). Mice were dosed intraperitoneally every three days (twice a week), after fasting overnight, with 5, 25, 50 mg/kg ISIS 147764 (SEQ ID No: 109) or saline (50 mg/kg) for six weeks.
At study termination, animals were sacrificed 48 hours after the final injections and body, spleen, liver and fat pad weights were measured. Values are expressed as percent change in body weight or ogan weight compared to the saline-treated control animals. Data from mice treated with atorvastatin at a daily dose of 20 mg/kg are also shown in the table Negative values indicated a decrease in weight.

[4] = Liver enzyme levels in ApoE knockout mice; assay type: in vivo, mouse
Source text: Female ApoE knockout mice ranged in age from 5 to 7 weeks and were placed on a normal diet for 2 weeks before study initiation. ApoE knockout mice were then fed ad libitum a 60% fat diet, with 0.15% added cholesterol to induce dyslipidemia and obesity. […]
At study termination and forty eight hours after the final injections, animals were sacrificed and evaluated for target mRNA levels in liver by RT-PCR methods verified by Northern Blot analysis, glucose levels, cholesterol and lipid levels by HPLC separation methods and triglyceride and liver enzyme levels (perfomed by LabCorp Preclinical Services; San Diego, Calif.). Data are normalized to saline controls.

Compound: 147820 (antisense eG*eA*eA*e[5mC]*eA*d[5mC]*dA*dT*dA*dG*d[5mC]*d[5mC]*dG*dA*dA*eT*eG*e[5mC]*e[5mC]*eG) [compound 147820]
Percent Inhibition of human apolipoprotein B mRNA levels ([1]; 50 nM): 10%
Percent Inhibition of human apolipoprotein B mRNA levels ([1]; 150 nM): 0%
Percent Inhibition of human apolipoprotein B mRNA levels ([1]; 250 nM): 73%
%INHIB of human apolipoprotein B mRNA levels [1]: 100%

Compound: 147823 (antisense eT*eG*e[5mC]*e[5mC]*e[5mC]*dT*dG*d[5mC]*dA*dG*d[5mC]*dT*dT*d[5mC]*dA*e[5mC]*eT*eG*eA*eA) [compound 147823]
%INHIB of human apolipoprotein B mRNA levels [1]: 19%

Compound: 147825 (antisense eA*eG*eA*eA*eG*d[5mC]*dT*dG*d[5mC]*d[5mC]*dT*d[5mC]*dT*dT*d[5mC]*eT*eT*e[5mC]*e[5mC]*e[5mC]) [compound 147825]
%INHIB of human apolipoprotein B mRNA levels [1]: 72%

Compound: 147826 (antisense eT*e[5mC]*eA*eG*eG*dG*dT*dG*dA*dG*d[5mC]*d[5mC]*d[5mC]*dT*dG*eT*eG*eT*eG*eT) [compound 147826]
%INHIB of human apolipoprotein B mRNA levels [1]: 80%

Compound: 147827 (antisense e[5mC]*eT*eA*eA*eT*dG*dG*d[5mC]*d[5mC]*d[5mC]*d[5mC]*dT*dT*dG*dA*eT*eA*eA*eA*e[5mC]) [compound 147827]
%INHIB of human apolipoprotein B mRNA levels [1]: 13%

Compound: 147828 (antisense eA*e[5mC]*eG*eT*eT*dA*dT*d[5mC]*d[5mC]*dT*dT*dG*dA*dG*dT*e[5mC]*e[5mC]*e[5mC]*eT*eG) [compound 147828]
%INHIB of human apolipoprotein B mRNA levels [1]: 12%

Compound: 147829 (antisense eT*eA*eT*eA*eT*d[5mC]*d[5mC]*d[5mC]*dA*dG*dG*dT*dT*dT*d[5mC]*e[5mC]*e[5mC]*e[5mC]*eG*eG) [compound 147829]
%INHIB of human apolipoprotein B mRNA levels [1]: 64%

Compound: 147831 (antisense e[5mC]*eT*eG*e[5mC]*e[5mC]*dT*dA*d[5mC]*dT*dG*d[5mC]*dA*dA*dG*dG*e[5mC]*eT*eG*eG*e[5mC]) [compound 147831]
%INHIB of human apolipoprotein B mRNA levels [1]: 0%

Compound: 147833 (antisense eA*eT*eG*eA*eT*dA*d[5mC]*dA*d[5mC]*dA*dA*dT*dA*dA*dA*eG*eA*e[5mC]*eT*e[5mC]) [compound 147833]
%INHIB of human apolipoprotein B mRNA levels [1]: 25%

Liver weight Percent Change [3]: 15%
Spleen weight Percent Change [3]: 10%
Total Body Wt. Percent Change [3]: 1%
Compound: CC(C)c1c(C(=O)Nc2ccccc2)c(-c2ccccc2)c(-c2ccc(F)cc2)n1CC[C@@H](O)C[C@@H](O)CC(=O)O [atorvastatin, atorvastatin calcium, reference compound]
AST levels ([2]; printed in the ALT paragraph): 40 IU/L
AST levels ([2]; saline control 65 IU/L): 85 IU/L
Fat pad weight Percent Change [3]: 7%
Liver Enzyme Levels ALT ([4]; 20 mg/kg daily, Control 56): 76 IU/L
Liver Enzyme Levels AST ([4]; Control 55): 75 IU/L
